Test results from patent US20110059869A1, “Method for Increasing Enzymatic Reactivity” (RIKEN, priority 2008, published 2011).

Legend:
restriction enzyme PstI [1] = test: PstI cleavage reaction on a horizontal plate surface (DNA fragment III); format: biochemical; settings: horizontal plates, 0.6 M trehalose vs none
Protocol: Biotin-labeled DNA fragment III (Seq. ID No. 6, Scheme 4) was cleaved at the restriction enzyme PstI site on a horizontal streptavidin coated plate surface and the 104 by DNA fragment released was examined. To the DNA fragment III (500 ng) was admixed an equal volume of 2× binding buffer. The mixture was added to the wells of a plate that had been washed with 1× binding buffer and stirred and adsorbed while being gently vibrated for 15 minutes at room temperature. The supernatant was removed, washed three times with 1× binding buffer, and washed once with 1× PstI buffer. Two types of reaction solution (1× PstI buffer, 1× BSA restriction enzyme 40 units) were prepared: a trehalose (+) system to which D(+)-trehalose was added to a final concentration of 0.6 M, and a trehalose (−) system to which no trehalose was added. Each of the reaction solutions was added to wells that had been washed, and then reacted for three hours at 37° C. Cleavage was conducted with restriction enzyme. The supernatant containing the DNA fragments that had been released was recovered, reacted with proteinase K, treated with phenol chloroform, and precipitated from ethanol. The precipitate of DNA fragments obtained was dissolved in 1× TE (pH 7.5) and analyzed with Bioanalyzer DNA 1000 assay (Agilent Technologies).

[2] = State of streptavidin bead reaction solution during enzymatic reaction; format: physicochemical; settings: 0.6 M additive; extended / three hours restriction enzyme reaction
Text: Thus, with no nonuniformity in enzymatic activity, the various enzymatic reactions were promoted and the quantity of target DNA recovered increased.
This was attributed to characteristics such as the viscosity and diffusing effect of trehalose or sorbitol.

restriction enzyme PstI [3] = test: PstI cleavage reactions with different distances from bead or plate surface to the DNA cleavage site; format: biochemical; settings: 0.6 M trehalose vs none; cleavage site 20 bp, 50 bp, 100 bp from surface; beads and plates
Protocol: Three biotin-labeled DNA fragments I, II, and III (Seq. ID Nos. 4 to 6, Scheme 4) were cleaved at their respective restriction enzyme PstI site and the size of the DNA fragments released was examined. Paramagnetic streptavidin beads were washed with the accessory 1× binding buffer and recovered with a magnetic stand to remove the supernatant. They were then suspended in identical buffer. To each of the three types of biotin-labeled DNA fragments (500 ng) was admixed an equal volume of 2× binding buffer, the bead solution was added, and the mixture was stirred gently for 15 minutes with top to bottom inversion and rotation to induce adsorption. The beads to which the sample had adsorbed were recovered with the magnetic stand, washed three times with 1× binding buffer, and washed one more time with 1× PstI buffer. […] The precipitate of DNA fragments obtained was dissolved in 1× TE (pH 7.5) and analyzed with Bioanalyzer DNA 1000 assay (Agilent Technologies).
Three biotin-labeled DNA fragments I, II, and III (Seq. ID Nos. 4 to 6, Scheme 4) were cleaved at their respective restriction enzyme PstI site and the size of the DNA fragments released was examined. […] The precipitate of DNA fragments obtained was dissolved in 1× TE (pH 7.5) and analyzed with Bioanalyzer DNA 1000 assay (Agilent Technologies). […]

[4] = system: enzyme reaction solution in a Genome Analyzer system; test: Sequencing reaction in a Solexa sequencing system (Genome Analyzer), PhiX control; format: biochemical; settings: trehalose 0.15 M, 0.3 M
Protocol: D(+)-trehalose was added to the enzyme reaction solution in a Genome Analyzer system (GAI) and the results were measured. The experiment was conducted with the three D(+)-trehalose final concentrations of 0.15 M, 0.3 M, and 0.51 M. The ratio of the reduction in the average value obtained by dividing the fluorescence intensity calculated for each cycle by the number of clusters was employed for comparison.
The D(+)-trehalose employed was D(+)-trehalose (90208 BioChemika, ≧99.5% (HPLC) (Fluka). A 36-cycle Illumina Sequencing Kit (FC-204-2036) was employed for sequencing with a Genome Analyzer (Illumina). The sample employed was PhiX control (CT-901-1001).
The IMX36 (42 mL) in box 2 of the SBS Kit contained in the 36-Cycle SBS Reagent Kit v2 (IIlumina catalog #FC-204-2036) was melted, after which D(+)-trehalose was added in the quantities indicated in Table 3.
Following the addition, the mixture was shielded from light and gently mixed with top to bottom inversion for 10 minutes at room temperature. Once the dissolution had been visually confirmed, the mixture was passed through a filter (with a filter pore system of 0.22 micrometers). Precisely the required 42 mL was collected from the mixed solution following filtration. Subsequently, the operations specified in the manufacturer's protocol were conducted.

SMILES: OC[C@H]1O[C@H](O[C@H]2O[C@H](CO)[C@@H](O)[C@H](O)[C@H]2O)[C@H](O)[C@@H](O)[C@@H]1O [trehalose, D(+)-trehalose]
- yield of released DNA fragment (restriction enzyme PstI [1]): higher yield
- uniformity of beads in the reaction solution [2]: maintaining better uniformity in the reaction solution
- yield of DNA released by cleavage (restriction enzyme PstI [3]): increase
- difference in rate of reduction in fluorescence intensity, trehalose (+) vs trehalose (−) ([4]; 35th cycle, 0.51 M, PhiX control): ≥ 20%
- PhiX control mapping rate ([4]; 0.51 M relative to trehalose (−)): overall significant difference
